Drawing on patent US20240391896A1 (Nantong Jutai Biotech Co., Ltd., priority 2021, published 2024), this text covers IC50 for twelve compounds.

Assay [1] has as its target T1, BCL9/β-catenin (Homo sapiens, UniProt P35222).
T1 sequence (P35222 1-781): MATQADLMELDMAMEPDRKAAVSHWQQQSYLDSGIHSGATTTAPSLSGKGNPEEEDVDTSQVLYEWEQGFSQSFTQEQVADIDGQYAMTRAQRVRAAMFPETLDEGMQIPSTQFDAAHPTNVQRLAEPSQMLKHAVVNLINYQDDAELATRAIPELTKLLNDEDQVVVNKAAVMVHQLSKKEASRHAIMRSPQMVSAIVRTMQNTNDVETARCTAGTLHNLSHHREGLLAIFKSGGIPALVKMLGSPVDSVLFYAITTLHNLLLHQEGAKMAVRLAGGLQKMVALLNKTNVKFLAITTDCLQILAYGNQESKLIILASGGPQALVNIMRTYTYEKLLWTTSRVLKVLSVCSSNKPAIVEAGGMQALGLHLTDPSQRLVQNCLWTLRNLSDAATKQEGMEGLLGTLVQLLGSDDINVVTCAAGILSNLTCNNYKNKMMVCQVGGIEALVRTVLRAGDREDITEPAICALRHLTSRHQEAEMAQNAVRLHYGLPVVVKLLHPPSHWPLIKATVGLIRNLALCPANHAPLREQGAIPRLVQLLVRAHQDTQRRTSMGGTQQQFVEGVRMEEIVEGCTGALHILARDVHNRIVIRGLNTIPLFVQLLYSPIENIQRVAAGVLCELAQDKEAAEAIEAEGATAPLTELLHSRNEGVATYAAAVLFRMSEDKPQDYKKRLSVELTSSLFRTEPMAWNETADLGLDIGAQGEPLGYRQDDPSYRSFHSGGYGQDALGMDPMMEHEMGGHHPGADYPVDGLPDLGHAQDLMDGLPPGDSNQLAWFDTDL
The experiment in a line: FP (BCL-9 avidity) fluorescence polarization competition assay with beta-catenin and FAP-Bcl9 tracer. The format is binding. How it is done: Incubating for 2 hours on a horizontal shaker. Then adding 2 nM FAP-Bcl9 tracer to each well, and after incubation for 2H on a horizontal shaker, measuring the […].

In assay [2] the test system is Human AXIN2. The assay can be described thus: qPCR of AXIN2 expression in HCT116 cells. In kind it is cell-based. The following applies: HCT-116, Table 2, HCT116 cells, AXIN2 vs β-actin, 24 hours. The procedure:
Cells were digesting, counting, and plating cells in 24-well plates (flat bottom, clear), with 3×10^5 cells/500 ul DMEM (10% FBS) per well. • 2. Observing the state of cells on the next day, and start dosing after cell attachment is intact
Diluting 514 with DMEM (2% FBS) by gradient dilution with concentrations of 20 μM, 10 μM, 5 μM, 2.5 μM, 1.25 μM, 0.625 μM, 0.3125 μM, 0.15625 μM, 0 μM (equal volume DMSO)
Adding 500 μl of the above different concentrations of 514 to each well, and setting a single well for each concentration gradient except three repeat wells for the 0 μM concentration (double wells for qPCR). • 3. Incubating at 37° C. for 24 hours • 4. Discarding the supernatant, washing once with PBS, and adding trizol at 500/well • 5. RNA extraction (step omitted) • 6. Reverse transcription (step omitted, according to the kit) • 7. qPCR (step omitted, following the kit steps)
• 8. calculation of inhibition rate
A general note: In qPCR the cycle at which signal appears reflects the starting amount.

The test system of assay [3] is HCT116 cells. The experiment in a line: CCK8 cell viability assay in HCT116 cells. In kind it is cell-based. The note with it: Homo sapiens, HCT-116; Table 2, HCT116 cells, 24 hours. How it is done: • 1. HCT116 cell plating
Digesting, counting, and plating the cells in 96-well plates (flat bottom, transparent) with 10,000 cells/100 ul DMEM (10% FBS) per well; • 2. Observing the state of cells on the next day, and start dosing after cell attachment is intact; • 3. diluting 514 with DMEM (2% FBS) by gradient dilution with concentrations of 20 μM, 10 μM, 5 μM, 2.5 μM, 1.25 μM, 0.625 μM, 0.3125 μM, 0.15625 μM, 0 μM (equal volume of DMSO); • 4. Adding 100 μl of the above different concentrations of 514 to each well, and making two repeat wells for each concentration gradient; leaving three blank wells (only adding DMEM 2% FBS culture medium without cells). • 5. Culturing at 37° C. for 24 hours; • 6. Adding 10 μl CCK-8 enhanced solution to each well: due to the small amount added of CCK-8 in each well, it may cause errors resulting from the reagent staining on the wall of the well. It is recommended to gently tap the culture plate after adding the reagent to help mixing; • 7. Incubating in the incubator for 0.5-4 hours: the amount of Formazan formed is not the same for different cell types, in most cases, incubation for 1 hour is enough. If the color development is not enough, incubation can be continued to determine optimal conditions. • 8. Measuring the absorbance at 450 nm and 600 nm (excluding the interference of the background color of the reagent and the absorbance value of the well plate itself); • 9. Using OD450 nm-OD600 nm for the final absorbance, and calculating the inhibition rate:
[formula] • As: absorbance of experimental wells (medium containing cells, CCK-8, drug to be tested); • Ac: absorbance of control wells (medium containing cells, CCK-8, and no drug to be tested); • Ab: absorbance of blank wells (medium without cells and drug to be tested, CCK-8). (3) qPCR • 1. HCT116 cell plating
A general note: Formazan colour is commonly taken as a measure of viable cells.

Setting [4] is: Table 1.1, compounds 1-6, read-out: BCL-9 avidity FP IC50.
Where [5] appears, read: Table 2, FP (BCL-9 affinity), read-out: FP.
The mark [6] stands for this setting: Table 1.2, compounds 7-16, read-out: BCL-9 avidity FP IC50.

Where two headings read alike, the source gives them in different places.

For the compound `CC(C)(Oc1cccc(N2CC(C(=O)N(Cc3ccc(-c4c[nH]c5ncccc45)cc3)C3CC3)CC(c3ccccc3)C2)c1)C(=O)N1CCNCC1` (racemic) [Compound 3, N-cyclopropyl-1-(3-{[2-methyl-1-oxo-1-(piperazin-1-yl)propan-2-yl]oxy}phenyl)-5-phenyl-N-[(4-{1H-pyrrolo[2,3-b]pyridin-3-yl}phenyl)methyl]piperidine-3-carboxamide], the IC50 in assay [1] (setting [4]) was 2.76 µM; in assay [1] (setting [5]) it was 2.76 µM; in assay [2], 10 to 20 µM; in assay [3] it was 10 to 20 µM.

In the case of `CC(C)C1CC=C(c2ccc(CN(C(=O)C3CC(c4ccccc4)CN(c4cccc(OC(C)(C)C(=O)N5CCNCC5)c4)C3)C3CC3)cc2)CC1` (racemic) [Compound 4, N-cyclopropyl-1-(3-{[2-methyl-1-oxo-1-(piperazin-1-yl)propan-2-yl]oxy}phenyl)-5-phenyl-N-({4-[4-(propan-2-yl)cyclohex-1-en-1-yl]phenyl}methyl)piperidine-3-carboxamide], the IC50 in assay [1] (setting [5]), in assay [2] and in assay [3] was 10 to 50 µM throughout.

With `CC(C)(Oc1cccc(N2CC(C(=O)N(Cc3ccc(-c4ccccc4)cc3)C3CC3)CC(c3ccccc3)C2)c1)C(=O)N1CCNCC1` (racemic) [Compound 5, N-cyclopropyl-1-(3-{[2-methyl-1-oxo-1-(piperazin-1-yl)propan-2-yl]oxy}phenyl)-5-phenyl-N-[(4-phenylphenyl)methyl]piperidine-3-carboxamide], the IC50 in assay [1] (setting [4]) is 2.25 µM; in assay [1] (setting [5]), 6.2 µM; in assay [2], 10 to 20 µM; in assay [3], 10 to 20 µM.

With `CC(C)(Oc1cccc(N2CC(C(=O)N(Cc3ccc(C4=CCCCC4)cc3)C3CC3)CC(c3ccccc3)C2)c1)C(=O)N1CCNCC1` (racemic) [Compound 6, N-{[4-(cyclohex-1-en-1-yl)phenyl]methyl}-N-cyclopropyl-1-(3-{[2-methyl-1-oxo-1-(piperazin-1-yl)propan-2-yl]oxy}phenyl)-5-phenylpiperidine-3-carboxamide], the IC50 in assay [1] (setting [4]) was 7.75 µM; in assay [1] (setting [5]), 7.75 µM; in assay [2], 10 to 20 µM; in assay [3], 10 to 20 µM.

Turning to `CC(C)(Oc1cccc(N2CC(C(=O)N(Cc3ccc(-c4cn[nH]c4)cc3)C3CC3)CC(C3CCCCC3)C2)c1)C(=O)N1CCNCC1` (stereo not shown) [Compound 1, 5-cyclohexyl-N-cyclopropyl-1-(3-{[2-methyl-1-oxo-1-(piperazin-1-yl)propan-2-yl]oxy}phenyl)-N-{[4-(1H-pyrazol-4-yl)phenyl]methyl}piperidine-3-carboxamide], the IC50 was > 10 µM in assay [1] (setting [4]), 10 to 50 µM in assay [1] (setting [5]), 10 to 50 µM in assay [2] and 10 to 50 µM in assay [3].

For the compound `CC(C)(Oc1cccc(N2CC(C(=O)N(Cc3ccc(-c4cn[nH]c4)cc3)C3CC3)CC(c3ccccc3)C2)c1)C(=O)N1CCNCC1` (stereo not shown) [Compound 2, N-cyclopropyl-1-(3-{[2-methyl-1-oxo-1-(piperazin-1-yl)propan-2-yl]oxy}phenyl)-5-phenyl-N-{[4-(1H-pyrazol-4-yl)phenyl]methyl}piperidine-3-carboxamide], the IC50 in assay [1] (setting [4]) was > 10 µM; in assay [1] (setting [5]), 10 to 50 µM; in assay [2] it was 10 to 20 µM; in assay [3], 10 to 50 µM.

`CC(C)(Oc1cccc(N2CCC[C@@H](C(=O)N(Cc3ccc(-c4c[nH]c5ncccc45)cc3)C3CC3)C2)c1Cl)C(=O)N1CCNCC1` [Compound 8, (3R)-1-(2-chloro-3-{[2-methyl-1-oxo-1-(piperazin-1-yl)propan-2-yl]oxy}phenyl)-N-cyclopropyl-N-[(4-{1H-pyrrolo[2,3-b]pyridin-3-yl}phenyl)methyl]piperidine-3-carboxamide]: the IC50 in assay [1] (setting [6]) was > 10 µM; in assay [1] (setting [5]) it was 10 to 50 µM; in assay [2], 10 to 50 µM; in assay [3], 10 to 20 µM.

`CC(C)(Oc1ccc(Cl)c(N2CCC[C@@H](C(=O)N(Cc3ccc(-c4cn[nH]c4)cc3)C3CC3)C2)c1)C(=O)N1CCNCC1` [Compound 9]: the IC50 in assay [1] (setting [6]) was > 10 µM; in assay [1] (setting [5]), 10 to 20 µM; in assay [2], 10 to 50 µM; in assay [3] it was 10 to 50 µM.

For the compound `CC(C)(Oc1ccc(Cl)c(N2CCC[C@@H](C(=O)N(Cc3ccc(C4=CCCCC4)cc3)C3CC3)C2)c1)C(=O)N1CCNCC1` [Compound 10, (3R)-1-(2-chloro-5-{[2-methyl-1-oxo-1-(piperazin-1-yl)propan-2-yl]oxy}phenyl)-N-{[4-(cyclohex-1-en-1-yl)phenyl]methyl}-N-cyclopropylpiperidine-3-carboxamide], the IC50 in assay [1] (setting [6]) is 2.7 µM; in assay [1] (setting [5]) it was 2.7 µM; in assay [2] it was 10 to 20 µM; in assay [3], 10 to 20 µM.

As for `CC(C)(Oc1ccc(Cl)c(N2CCC[C@@H](C(=O)N(Cc3ccc(-c4c[nH]c5ncccc45)cc3)C3CC3)C2)c1)C(=O)N1CCNCC1` [Compound 11, (3R)-1-(2-chloro-5-{[2-methyl-1-oxo-1-(piperazin-1-yl)propan-2-yl]oxy}phenyl)-N-cyclopropyl-N-[(4-{1H-pyrrolo[2,3-b]pyridin-3-yl}phenyl)methyl]piperidine-3-carboxamide], the IC50 in assay [1] (setting [6]) is 2.44 µM; in assay [1] (setting [5]) it was 2.44 µM; in assay [2], 10 to 20 µM; in assay [3], 10 to 20 µM.

Take `CC(C)(Oc1cccc(N2CCC[C@@H](C(=O)N(Cc3ccc(-c4cn[nH]c4)c(Cl)c3)C3CC3)C2)c1)C(=O)N1CCNCC1` [Compound 12, (3R)-N-{[3-chloro-4-(1H-pyrazol-4-yl)phenyl]methyl}-N-cyclopropyl-1-(3-{[2-methyl-1-oxo-1-(piperazin-1-yl)propan-2-yl]oxy}phenyl)piperidine-3-carboxamide]: the IC50 is > 10 µM in assay [1] (setting [6]), 10 to 20 µM in assay [1] (setting [5]), 10 to 20 µM in assay [2] and 10 to 50 µM in assay [3].

Consider `CC(C)(Oc1cccc(N2CCC[C@@H](C(=O)N(Cc3ccc(C4=CCCCC4)c(Cl)c3)C3CC3)C2)c1)C(=O)N1CCNCC1` [Compound 13, (3R)-N-{[3-chloro-4-(cyclohex-1-en-1-yl)phenyl]methyl}-N-cyclopropyl-1-(3-{[2-methyl-1-oxo-1-(piperazin-1-yl)propan-2-yl]oxy}phenyl)piperidine-3-carboxamide], for which the IC50 in assay [1] (setting [5]), in assay [2] and in assay [3] was 10 to 50 µM in each case.
